Source: ChEMBL document CHEMBL1932988, “Synthesis, antimicrobial, anticancer evaluation and QSAR studies of 6-methyl-4-[1-(2-substituted-phenylamino-acetyl)-1H-indol-3-yl]-2-oxo/thioxo-1,2,3,4-tetrahydropyrimidine-5-carboxylic acid ethyl esters” (Eur J Med Chem, 2012)
Converted amounts (≈) assume the structure as drawn.

Tests used:
Staphylococcus aureus [1] = assay: Ratio of MIC to MBC for Staphylococcus aureus MTCC 2901; assay type: functional
Bacillus subtilis [2] = assay: Antibacterial activity against Bacillus subtilis MTCC 2063 after 24 hrs by tube dilution method; assay type: functional
Escherichia coli [3] = assay: Antibacterial activity against Escherichia coli MTCC 1652 after 24 hrs by tube dilution method; assay type: functional
MCF7 = assay: cells; conditions: Homo sapiens, MCF7, 72 h
Description: Cytotoxicity against human MCF7 cells after 72 hrs by MTT assay

Aspergillus niger [4] = assay: Ratio of MIC to MFC for Aspergillus niger MTCC 8189; assay type: functional
Escherichia coli [5] = assay: Antibacterial activity against Escherichia coli MTCC 1652 after 24 hrs by tube dilution method hrs followed by subculturing; assay type: functional
Aspergillus niger [6] = assay: Antifungal activity against Aspergillus niger MTCC 8189 after 7 days by tube dilution method hrs followed by subculturing; assay type: functional
Candida albicans [7] = assay: Antifungal activity against Candida albicans MTCC 227 after 48 hrs by tube dilution method; assay type: functional
Escherichia coli [8] = assay: Ratio of MIC to MBC for Escherichia coli MTCC 1652; assay type: functional
Staphylococcus aureus [9] = assay: Antibacterial activity against Staphylococcus aureus MTCC 2901 after 24 hrs by tube dilution method; assay type: functional
Candida albicans [10] = assay: Antifungal activity against Candida albicans MTCC 227 after 48 hrs by tube dilution method hrs followed by subculturing; assay type: functional
Candida albicans [11] = assay: Ratio of MIC to MFC for Candida albicans MTCC 227; assay type: functional
[12] = Partition coefficient, log P of the compound; assay type: physicochemical; conditions: octanol/water
Bacillus subtilis [13] = assay: Ratio of MIC to MBC for Bacillus subtilis MTCC 2063; assay type: functional
Staphylococcus aureus [14] = assay: Antibacterial activity against Staphylococcus aureus MTCC 2901 after 24 hrs followed by subculturing; assay type: functional
Aspergillus niger [15] = assay: Antifungal activity against Aspergillus niger MTCC 8189 after 7 days by tube dilution method; assay type: functional
Bacillus subtilis [16] = assay: Antibacterial activity against Bacillus subtilis MTCC 2063 after 24 hrs by tube dilution method hrs followed by subculturing; assay type: functional
HCT-116 = assay: cells; conditions: Homo sapiens, HCT-116, 72 h

## CCOC(=O)C1=C(C)NC(=O)NC1c1cn(C(=O)CNc2ccc([N+](=O)[O-])cc2)c2ccccc12 (configuration not stated)
Staphylococcus aureus [1]
  Ratio: 3
Bacillus subtilis [2]
  -logMIC: 1.58
Escherichia coli [3]
  -logMIC: 1.88
MCF7
  IC50: > 1000 µg/mL
Aspergillus niger [4]
  Ratio: 3
Escherichia coli [5]
  MBC: 0.1 uM/ml
Aspergillus niger [6]
  MFC: >0.1 uM/ml
Candida albicans [7]
  -logMIC: 1.58
Escherichia coli [8]
  Ratio: 3
Staphylococcus aureus [9]
  -logMIC: 1.88
Candida albicans [10]
  MFC: >0.1 uM/ml
Candida albicans [11]
  Ratio: 3
[12]
  logP: 1.48
Bacillus subtilis [13]
  Ratio: 3
Staphylococcus aureus [14]
  MBC: 0.1 uM/ml
Aspergillus niger [15]
  -logMIC: 1.58
Bacillus subtilis [16]
  MBC: >0.1 uM/ml

## CCOC(=O)C1=C(C)NC(=O)NC1c1cn(C(=O)CNc2ccc([N+](=O)[O-])cc2Cl)c2ccccc12 (configuration not stated)
Staphylococcus aureus [1]
  Ratio: 3
Bacillus subtilis [2]
  -logMIC: 1.61
Escherichia coli [3]
  -logMIC: 1.61
MCF7
  IC50: 50 µg/mL (≈ 97.7 µM)
Aspergillus niger [4]
  Ratio: 3
HCT-116
  IC50: 5 µg/mL (≈ 9.77 µM)
Escherichia coli [5]
  MBC: >0.1 uM/ml
Aspergillus niger [6]
  MFC: >0.1 uM/ml
Candida albicans [7]
  -logMIC: 1.61
Escherichia coli [8]
  Ratio: 3
Staphylococcus aureus [9]
  -logMIC: 1.61
Candida albicans [10]
  MFC: >0.1 uM/ml
Candida albicans [11]
  Ratio: 3
[12]
  logP: 1.99
Bacillus subtilis [13]
  Ratio: 3
Staphylococcus aureus [14]
  MBC: >0.1 uM/ml
Aspergillus niger [15]
  -logMIC: 1.61
Bacillus subtilis [16]
  MBC: >0.1 uM/ml

## CCOC(=O)C1=C(C)NC(=S)NC1c1cn(C(=O)CNc2ccccc2[N+](=O)[O-])c2ccccc12 (configuration not stated)
Staphylococcus aureus [1]
  Ratio: 3
Bacillus subtilis [2]
  -logMIC: 1.6
Escherichia coli [3]
  -logMIC: 1.6
MCF7
  IC50: 550 µg/mL (≈ 1110 µM)
Aspergillus niger [4]
  Ratio: 3
HCT-116
  IC50: > 1000 µg/mL
Escherichia coli [5]
  MBC: >0.1 uM/ml
Aspergillus niger [6]
  MFC: >0.1 uM/ml
Candida albicans [7]
  -logMIC: 1.6
Escherichia coli [8]
  Ratio: 3
Staphylococcus aureus [9]
  -logMIC: 1.3
Candida albicans [10]
  MFC: >0.1 uM/ml
Candida albicans [11]
  Ratio: 3
[12]
  logP: 2.88
Bacillus subtilis [13]
  Ratio: 3
Staphylococcus aureus [14]
  MBC: >0.1 uM/ml
Aspergillus niger [15]
  -logMIC: 1.6
Bacillus subtilis [16]
  MBC: >0.1 uM/ml

## CCOC(=O)C1=C(C)NC(=S)NC1c1cn(C(=O)CNc2ccc([N+](=O)[O-])cc2)c2ccccc12 (configuration not stated)
Staphylococcus aureus [1]
  Ratio: 3
Bacillus subtilis [2]
  -logMIC: 1.6
Escherichia coli [3]
  -logMIC: 2.5
MCF7
  IC50: > 1000 µg/mL
Aspergillus niger [4]
  Ratio: 3
Escherichia coli [5]
  MBC: 0.03 uM/ml
Aspergillus niger [6]
  MFC: >0.1 uM/ml
Candida albicans [7]
  -logMIC: 1.9
Escherichia coli [8]
  Ratio: 3
Staphylococcus aureus [9]
  -logMIC: 1.6
Candida albicans [10]
  MFC: 0.1 uM/ml
Candida albicans [11]
  Ratio: 3
[12]
  logP: 2.88
Bacillus subtilis [13]
  Ratio: 3
Staphylococcus aureus [14]
  MBC: >0.1 uM/ml
Aspergillus niger [15]
  -logMIC: 1.6
Bacillus subtilis [16]
  MBC: >0.1 uM/ml

## CCOC(=O)C1=C(C)NC(=O)NC1c1cn(C(=O)CNc2ccc(Cl)cc2)c2ccccc12 (configuration not stated)
Staphylococcus aureus [1]
  Ratio: 3
Bacillus subtilis [2]
  -logMIC: 1.27
Escherichia coli [3]
  -logMIC: 1.27
MCF7
  IC50: 200 µg/mL (≈ 428 µM)
Aspergillus niger [4]
  Ratio: 3
Escherichia coli [5]
  MBC: >0.11 uM/ml
Aspergillus niger [6]
  MFC: >0.11 uM/ml
Candida albicans [7]
  -logMIC: 1.57
Escherichia coli [8]
  Ratio: 3
Staphylococcus aureus [9]
  -logMIC: 1.57
Candida albicans [10]
  MFC: >0.11 uM/ml
Candida albicans [11]
  Ratio: 3
[12]
  logP: 2.04
Bacillus subtilis [13]
  Ratio: 3
Staphylococcus aureus [14]
  MBC: >0.11 uM/ml
Aspergillus niger [15]
  -logMIC: 1.57
Bacillus subtilis [16]
  MBC: >0.11 uM/ml

## CCOC(=O)C1=C(C)NC(=S)NC1c1cn(C(=O)CNc2cccc([N+](=O)[O-])c2)c2ccccc12 (configuration not stated)
Staphylococcus aureus [1]
  Ratio: 3
Bacillus subtilis [2]
  -logMIC: 1.6
Escherichia coli [3]
  -logMIC: 1.9
MCF7
  IC50: > 1000 µg/mL
Aspergillus niger [4]
  Ratio: 3
HCT-116
  IC50: 130 µg/mL (≈ 263 µM)
Escherichia coli [5]
  MBC: 0.1 uM/ml
Aspergillus niger [6]
  MFC: >0.1 uM/ml
Candida albicans [7]
  -logMIC: 1.6
Escherichia coli [8]
  Ratio: 3
Staphylococcus aureus [9]
  -logMIC: 1.6
Candida albicans [10]
  MFC: >0.1 uM/ml
Candida albicans [11]
  Ratio: 3
[12]
  logP: 2.88
Bacillus subtilis [13]
  Ratio: 3
Staphylococcus aureus [14]
  MBC: >0.1 uM/ml
Aspergillus niger [15]
  -logMIC: 1.6
Bacillus subtilis [16]
  MBC: >0.1 uM/ml

## OC(Cn1cncn1)(Cn1cncn1)c1ccc(F)cc1F [FLUCONAZOLE]
Aspergillus niger [6]
  MFC: 0.04 uM/ml
Candida albicans [7]
  -logMIC: 2.64
Candida albicans [10]
  MFC: 0.04 uM/ml
Aspergillus niger [15]
  -logMIC: 2.64

## O=c1[nH]cc(F)c(=O)[nH]1 [FLUOROURACIL]
MCF7
  IC50: 0.67 µg/mL (≈ 5.15 µM)
HCT-116
  IC50: 6 µg/mL (≈ 46.1 µM)

## CCn1cc(C(=O)O)c(=O)c2cc(F)c(N3CCNCC3)cc21 [NORFLOXACIN]
Bacillus subtilis [2]
  -logMIC: 2.61
Escherichia coli [3]
  -logMIC: 2.61
Escherichia coli [5]
  MBC: 0.019 uM/ml
Staphylococcus aureus [9]
  -logMIC: 2.61
Staphylococcus aureus [14]
  MBC: 0.019 uM/ml
Bacillus subtilis [16]
  MBC: 0.019 uM/ml
